Earlier results, collected in paper PMC2810191 (Biochemistry, 2009).

System: Bacillus anthracis

## CCc1nc(N)nc(N)c1C#CCc1cc(OC)ccc1OC [UCP120B, 2,4-diamino-5-(3-(2,5-dimethoxyphenyl)prop-1-ynyl)-6-ethyl-pyrimidine]
  inhibition of growth of the bacteria: modestly inhibits the growth of the bacteria
